Reference: US11186589B2, “Cyanoindoline derivatives as NIK inhibitors” (Janssen Pharmaceutica NV, priority 2016, dated 2021)

test system: KMS12-BM cells; assay: Antiproliferative activity on KMS12-BM (NIK WT) multiple myeloma cells (CellTiter-Glo); assay type: cell-based, human; settings: 96 hr treatment, averaged values, read-out: KMS-12 Proliferation inhibition (IC50 (nM))
Description: (§1) Determination of Antiproliferative Activity on JJN-3 (NIK Translocated) and KMS12-BM (NIK WT) Multiple Myeloma Cells
(§2) All compounds tested were dissolved in DMSO and further dilutions were made in culture medium. Final DMSO concentration was 0.3% (v/v) in cell proliferation assays. Viability was assessed using CellTiter-Glo cell viability assay kit (Promega). The human JJN-3 and KMS12-BM cells (DSMZ) were cultured in RPMI 1640 medium supplemented with 2 mM L-glutamine, and 10% fetal calf serum (PAA). Cells were routinely kept as suspension cells at 37° C. in a humidified 5% CO2 atmosphere. Cells were passaged at a seeding density of 0.2×10^6/ml twice a week. Cells were seeded in black tissue culture treated 96-well plates (Perkin Elmer). Densities used for plating ranged from 15000 (JJN3) to 20000 (KMS12BM) cells per well in a total volume of […]. Drugs and/or solvents were added (15 μl) to a final volume of 150 μl. Following 96 hr of treatment, plates were removed from the incubator and allowed to equilibrate to room temperature for approx 10 min. 75 μl CellTiter-Glo reagent was added to each well that was then covered (Perkin Elmer Topseal) and shaken on plate shaker for 10 min. Luminescence was measured on a HTS Topcount (Perkin Elmer). Within an experiment, the results for each treatment were the mean of 2 replicate wells. For initial screening purposes, compounds were tested using a 9 point dilution curve (serial 1:3 dilutions). For each experiment, controls (containing no drug) and a blank incubation (containing cells read at the time of compound addition) were run in parallel. The blank value was subtracted from all control and sample values. For each sample, the mean value for cell growth (in relative light units) was expressed as a percentage of the mean value for cell growth of the control.

| IC50 [nM] | Structure (SMILES) |
| --- | --- |
| ~2240 | CC(C)C1CCn2ncc(Nc3nccc(-c4cc(C#N)c5c(c4)[C@@](C)(CO)CN5)n3)c2O1 (single isomer, unassigned) [Compound 23b] |
| > 10000 | CC(C)C1CCn2ncc(Nc3nccc(-c4cc(C#N)c5c(c4)[C@@](C)(CO)CN5)n3)c2O1 (single isomer, unassigned) [Compound 22b] |
| > 10000 | CC1CCn2ncc(Nc3nccc(-c4cc(C#N)c5c(c4)[C@@](C)(CO)CN5)n3)c2O1 (single isomer, unassigned) [Compound 2b] |
| ~2820 | CC1CCn2ncc(Nc3nccc(-c4cc(C#N)c5c(c4)[C@@](C)(CO)CN5)n3)c2O1 (single isomer, unassigned) [Compound 1b] |

same assay, conditions: Homo sapiens, KMS-12-BM, 96 h, 96 hr treatment, averaged values, read-out: KMS-12 Proliferation inhibition (IC50 (nM))

| IC50 [nM] | Structure (SMILES) |
| --- | --- |
| ~288 | COc1cc2c(cc1Nc1nccc(-c3cc(C#N)c4c(c3)[C@@](C)(CO)CN4)n1)CCN(C)CC2 [Compound 24] |
| ~6030 | CC(C)(O)Cn1ccc2c(Nc3nccc(-c4cc(C#N)c5c(c4)C(C)(C)CN5)n3)cc(Cl)cc21 [Compound 2c] |

test system: JJN-3 cells; assay: Antiproliferative activity on JJN-3 (NIK translocated) multiple myeloma cells (CellTiter-Glo); assay type: cell-based, human; settings: Homo sapiens, JJN-3, 96 h, JJN-3 (NIK translocated) cells, 96 hr treatment, averaged values, read-out: JJN-3 Proliferation inhibition (IC50 (nM))
Description: as §1, §2

| IC50 [nM] | Structure (SMILES) |
| --- | --- |
| ~214 | COc1cc2c(cc1Nc1nccc(-c3cc(C#N)c4c(c3)[C@@](C)(CO)CN4)n1)CCN(C)CC2 [Compound 24] |
| 123 | CC(C)(O)Cn1ccc2c(Nc3nccc(-c4cc(C#N)c5c(c4)C(C)(C)CN5)n3)cc(Cl)cc21 [Compound 2c] |
| 58 | CC1CCn2ncc(Nc3nccc(-c4cc(C#N)c5c(c4)[C@@](C)(CO)CN5)n3)c2O1 (single isomer, unassigned) [Compound 1b] |

same assay, conditions: JJN-3 (NIK translocated) cells, 96 hr treatment, averaged values, read-out: JJN-3 Proliferation inhibition (IC50 (nM))

| IC50 [nM] | Structure (SMILES) |
| --- | --- |
| 45 | CC(C)C1CCn2ncc(Nc3nccc(-c4cc(C#N)c5c(c4)[C@@](C)(CO)CN5)n3)c2O1 (single isomer, unassigned) [Compound 23b] |
| 166 | CC(C)C1CCn2ncc(Nc3nccc(-c4cc(C#N)c5c(c4)[C@@](C)(CO)CN5)n3)c2O1 (single isomer, unassigned) [Compound 22b] |
| 93 | CC1CCn2ncc(Nc3nccc(-c4cc(C#N)c5c(c4)[C@@](C)(CO)CN5)n3)c2O1 (single isomer, unassigned) [Compound 2b] |

molecular target: NIK/MAP3K14 (Homo sapiens (Human), UniProt Q99558); assay: Inhibition of auto-phosphorylation of recombinant human NF-kappaB-inducing kinase (NIK/MAP3K14) activity (AlphaScreen); assay type: biochemical; settings: averaged values over all measurements on all batches, 25 microM ATP
Description: Inhibition of Auto-Phosphorylation of Recombinant Human NF-kappaB-Inducing Kinase ([…]) Activity (AlphaScreen®)
NIK/MAP3K14 auto-phosphorylation activity was measured using the AlphaScreen® (αscreen) format (Perkin Elmer). All compounds tested were dissolved in dimethyl sulfoxide (DMSO) and further dilutions were made in assay buffer. Final DMSO concentration was […] in assays. Assay buffer was 50 mM Tris pH 7.5 containing 1 mM EGTA (ethylene glycol tetraacetic acid), 1 mM DTT (dithiothreitol), 0.1 mM Na3VO4, 5 mM MgCl2, 0.01% Tween® 20. Assays were carried out in 384 well Alphaplates (Perkin Elmer). Incubations consisted of compound, 25 microM Adenosine-5′-triphosphate (ATP), and 0.2 nM NIK/MAP3K14. Incubations were initiated by addition of GST-tagged NIK/MAP3K14 enzyme, carried out for 1 h at 25° C. and terminated by addition of stop buffer containing anti-phospho-[…] Ser176/180 antibody. Protein A Acceptor and Glutathione-Donor beads were added before reading using an EnVision® Multilabel Plate Reader (Perkin Elmer). Signal obtained in the wells containing blank samples was subtracted from all other wells and IC50's were determined by fitting a sigmoidal curve to % inhibition of control versus Log10 compound concentration.

Chain of NIK/MAP3K14 (Q99558 whole entry): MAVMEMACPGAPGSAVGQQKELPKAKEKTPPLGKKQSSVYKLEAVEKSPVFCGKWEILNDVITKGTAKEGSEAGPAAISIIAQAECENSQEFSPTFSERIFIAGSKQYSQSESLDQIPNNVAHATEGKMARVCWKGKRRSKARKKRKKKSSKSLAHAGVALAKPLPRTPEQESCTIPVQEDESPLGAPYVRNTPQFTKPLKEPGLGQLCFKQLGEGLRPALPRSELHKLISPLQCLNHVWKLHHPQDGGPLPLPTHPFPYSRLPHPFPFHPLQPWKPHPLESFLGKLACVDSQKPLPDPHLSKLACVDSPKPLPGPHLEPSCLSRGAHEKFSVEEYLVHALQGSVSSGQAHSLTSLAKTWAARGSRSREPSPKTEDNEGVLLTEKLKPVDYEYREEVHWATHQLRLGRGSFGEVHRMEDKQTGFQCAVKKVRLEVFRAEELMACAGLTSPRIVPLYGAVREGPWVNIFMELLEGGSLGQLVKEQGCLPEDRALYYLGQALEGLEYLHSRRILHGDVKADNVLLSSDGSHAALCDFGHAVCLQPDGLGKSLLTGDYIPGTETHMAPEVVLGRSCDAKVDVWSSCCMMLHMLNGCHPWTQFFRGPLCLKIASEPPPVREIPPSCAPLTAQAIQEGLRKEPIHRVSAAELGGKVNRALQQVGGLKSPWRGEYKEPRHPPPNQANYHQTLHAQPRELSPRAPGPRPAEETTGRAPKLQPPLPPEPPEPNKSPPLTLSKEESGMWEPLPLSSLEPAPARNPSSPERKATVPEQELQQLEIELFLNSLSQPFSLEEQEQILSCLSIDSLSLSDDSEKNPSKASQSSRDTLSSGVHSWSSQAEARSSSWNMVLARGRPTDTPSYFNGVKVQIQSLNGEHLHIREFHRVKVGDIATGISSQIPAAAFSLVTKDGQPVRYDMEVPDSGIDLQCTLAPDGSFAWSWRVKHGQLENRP

| IC50 [nM] | Structure (SMILES) |
| --- | --- |
| 3 | COc1cc2c(cc1Nc1nccc(-c3cc(C#N)c4c(c3)[C@@](C)(CO)CN4)n1)CCN(C)CC2 [Compound 24] |
| 87.1 | CC(C)(O)Cn1ccc2c(Nc3nccc(-c4cc(C#N)c5c(c4)C(C)(C)CN5)n3)cc(Cl)cc21 [Compound 2c] |
| 6.9 | CC(C)C1CCn2ncc(Nc3nccc(-c4cc(C#N)c5c(c4)[C@@](C)(CO)CN5)n3)c2O1 (single isomer, unassigned) [Compound 23b] |
| 7.1 | CC(C)C1CCn2ncc(Nc3nccc(-c4cc(C#N)c5c(c4)[C@@](C)(CO)CN5)n3)c2O1 (single isomer, unassigned) [Compound 22b] |
| 2 | CC1CCn2ncc(Nc3nccc(-c4cc(C#N)c5c(c4)[C@@](C)(CO)CN5)n3)c2O1 (single isomer, unassigned) [Compound 2b] |
| 2.8 | CC1CCn2ncc(Nc3nccc(-c4cc(C#N)c5c(c4)[C@@](C)(CO)CN5)n3)c2O1 (single isomer, unassigned) [Compound 1b] |

test system: P-IKKα levels in L363 cells; assay: Effect of compounds on P-IKKα levels in L363 (NIK translocated multiple myeloma) cells; assay type: cell-based, human; settings: 2 hr treatment, averaged values, read-out: Inhibition of pIKKα_L-363 (IC50 (nM))
Description: Effect of Compounds on P-IKKα Levels in L363 (NIK Translocated Multiple Myeloma) Cells
All compounds tested were dissolved in DMSO and further dilutions were made in culture medium. Final DMSO concentration was 1% (v/v) in cell assays. The human L363 cells (ATCC) were cultured in RPMI 1640 medium supplemented with GlutaMax and 10% fetal calf serum (PAA). Cells were routinely maintained at densities of 0.2×10^6 cells per ml—1×10^6 cells per ml at 37° C. in a humidified 5% CO2 atmosphere. Cells were passaged twice a week splitting back to obtain the low density. Cells were seeded in 96 well plates (Nunc 167008) at 2×10^6 per ml media in a volume of 75 μl per well plus 25 μl 1 μg/ml recombinant human B-cell activating factor (BAFF/BLyS/TNFSF13B). Seeded cells were incubated at 37° C. in a humidified 5% CO2 atmosphere for 24 hr. Drugs and/or solvents were added (20 μl) to a final volume of 120 μl. Following 2 hr treatment plates were removed from the incubator and cell lysis was achieved by the addition of 30 μl 5× lysis buffer followed by shaking on a plate shaker at 4° C. for 10 min. At the end of this incubation lysed cells were centrifuged at 800×g for 20 min at 4° C. and the lysate was assessed for P-IKKα levels by sandwich immuno-assay carried out in anti-rabbit antibody coated Mesoscale plates. Within an experiment, the results for each treatment were the mean of 2 replicate wells. For initial screening purposes, compounds were tested using an 8 point dilution curve (serial 1:3 dilutions). For each experiment, controls (containing MG132 and BAFF but no test drug) and a blank incubation (containing MG132 and BAFF and 10 μM ADS125117, a test concentration known to give full inhibition) were run in parallel. The blank incubation value was subtracted from all control and sample values. To determine the IC50 a sigmoidal curve was fitted to the plot of % inhibition of control P-IKKα levels versus Log10 compound concentration.

| IC50 [nM] | Structure (SMILES) |
| --- | --- |
| 2 | CC(C)C1CCn2ncc(Nc3nccc(-c4cc(C#N)c5c(c4)[C@@](C)(CO)CN5)n3)c2O1 (single isomer, unassigned) [Compound 23b] |
| 4 | CC1CCn2ncc(Nc3nccc(-c4cc(C#N)c5c(c4)[C@@](C)(CO)CN5)n3)c2O1 (single isomer, unassigned) [Compound 2b] |

same assay, conditions: Homo sapiens, L-363, 2 h, 2 hr treatment, averaged values, read-out: Inhibition of pIKKα_L-363 (IC50 (nM))

| IC50 [nM] | Structure (SMILES) |
| --- | --- |
| ~74 | COc1cc2c(cc1Nc1nccc(-c3cc(C#N)c4c(c3)[C@@](C)(CO)CN4)n1)CCN(C)CC2 [Compound 24] |
| 78 | CC(C)(O)Cn1ccc2c(Nc3nccc(-c4cc(C#N)c5c(c4)C(C)(C)CN5)n3)cc(Cl)cc21 [Compound 2c] |
| 3 | CC(C)C1CCn2ncc(Nc3nccc(-c4cc(C#N)c5c(c4)[C@@](C)(CO)CN5)n3)c2O1 (single isomer, unassigned) [Compound 22b] |
| 2 | CC1CCn2ncc(Nc3nccc(-c4cc(C#N)c5c(c4)[C@@](C)(CO)CN5)n3)c2O1 (single isomer, unassigned) [Compound 1b] |
